This note sets out measurements from patent publication US10772891B2, “Pyrazolo pyridine derivatives as NADPH oxidase inhibitors” (GENKYOTEX SUISSE SA, priority 2008, dated 2020).

Bounds are passed on as bounds.

For experiment [1], the target named is T1, NOX (Homo sapiens, UniProt P04839).
T1 construct: NOX activity as measured by Amplex Red using DMSO-differentiated HL60 cells; endogenous in cells; host or cells: HL-60 cells differentiated to the neutrophil phenotype with Me2SO
T1 sequence (P04839 2-570 limits assumed): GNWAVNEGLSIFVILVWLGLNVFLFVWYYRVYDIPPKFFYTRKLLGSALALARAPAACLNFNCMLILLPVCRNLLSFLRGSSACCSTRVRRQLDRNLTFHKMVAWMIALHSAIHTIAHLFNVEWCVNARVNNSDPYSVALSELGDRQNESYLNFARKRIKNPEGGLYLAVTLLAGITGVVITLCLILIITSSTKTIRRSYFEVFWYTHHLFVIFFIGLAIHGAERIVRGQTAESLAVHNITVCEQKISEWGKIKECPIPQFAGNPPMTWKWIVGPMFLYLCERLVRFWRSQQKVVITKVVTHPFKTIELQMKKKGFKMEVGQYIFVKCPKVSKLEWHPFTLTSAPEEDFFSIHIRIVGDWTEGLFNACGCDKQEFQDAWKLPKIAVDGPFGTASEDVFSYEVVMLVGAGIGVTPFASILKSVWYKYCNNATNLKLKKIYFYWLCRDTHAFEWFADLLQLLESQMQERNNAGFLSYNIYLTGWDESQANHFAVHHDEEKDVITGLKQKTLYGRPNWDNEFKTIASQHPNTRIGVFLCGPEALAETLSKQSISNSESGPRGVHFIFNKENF
T1 sequence (P13498 1-195 partner): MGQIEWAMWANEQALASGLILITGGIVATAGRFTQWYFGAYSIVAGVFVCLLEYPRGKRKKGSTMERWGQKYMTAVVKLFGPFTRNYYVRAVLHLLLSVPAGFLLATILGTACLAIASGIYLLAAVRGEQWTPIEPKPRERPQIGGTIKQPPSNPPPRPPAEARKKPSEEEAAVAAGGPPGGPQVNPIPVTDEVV
The experiment can be described thus: Amplex Red measurement of extracellular hydrogen peroxide (NOX activity) in DMSO-differentiated HL60 cells. The experiment is classed as cell-based. Here is the method:
Human acute myeloid leukemia cell line HL-60 was cultured in RPMI 1640 (Invitrogen) supplemented with 10% heat-inactivated calf serum, 2 mM glutamine, 100 U/mL penicillin (Sigma), and 100 μg streptomycin (Sigma) at 37° C. under a humidified atmosphere of 5% CO2. HL60 differentiation to the neutrophil phenotype was triggered by adding Me2SO (final concentration 1.25% v/v for 6 days) to the culture medium.
Extracellular hydrogen peroxide was measured using Amplex UltraRed (Molecular Probes). Cells were trypsinized (1× Trypsin-EDTA), collected by centrifugation, and resuspended in HBSS supplemented with 1% glucose. Cells were seeded into black 96-well plates at a density of 50′000 cells in 200 μl testing buffer (HBSS 1% glucose containing 0.005 U/mL horseradish peroxidase (Roche) and 50 μM Amplex Red in the presence or absence of compounds according to the invention. As a control, DPI was included at a final concentration of 10 μM The plates were placed in the fluorescent Optima Fluorescent plate reader and kept at 37° C. during 20 min. Fluorescence was measured for 15 min with excitation and emission wavelengths of 544 nm and 590 nm respectively. NOX activities were expressed as % of the activity in control cells. Residual activity of DPI-treated cells was usually <10%. […]
The Table 2 below summarizes the IC50 of NOX activity as measured by Amplex Red using DMSO-differentiated HL60 cells as described above: […]

The subject of experiment [2] is NOX. The experiment is described as follows: Chemiluminescence (Luminol) ROS measurement in cells. It is filed as cell-based, human. The following applies: % of the activity in control cells, 'usually'. Here is the method: ROS was measured using the chemiluminescent probe luminol. Cells were cultured and plated as for Amplex Red except that the Amplex Red agent was replaced by 10 μg/mL luminol (Sigma 09235). Light emission was recorded continuously at 37° C. for 60 minutes using the luminescence function of the FluoStar Optima fluorescent plate reader. The mean of the four blank values was subtracted from each corrected value for each time point. NOX activities were expressed as % of the activity in control cells. Residual activity of DPI-treated cells was usually <10%.

Experiment [3] deals with NOX. The experiment is described as follows: H2DCF-DA fluorescence in TGF-β stimulated HUVEC. It is filed as cell-based, human. The following applies: % of the activity in control cells, 'usually'. Here is the method:
HUVEC are cultured in endothelial basal medium supplemented with hydrocortisone (1 μg/mL, CalBioChem), bovine brain extract (12 μg/mL), gentamicin (50 μg/mL, CalBioChem), amphotericin B (50 ng/mL, CalBioChem EGF (10 ng/mL, and 10% FCS until the fourth passage. When the fifth passage was started, cells were cultured with a lower concentration of FCS (2%) in the absence of EGF, if not indicated otherwise. All experiments were done with cells of the fifth passage. The cells were incubated with OxLDL (oxidized low-density lipoprotein) or its buffer as control for 24 h, before detection of 02 formation.
HUVEC were plated on coverslips and made quiescent overnight in 0.5% BSA before stimulation with TGF-β. Cells were loaded for 10 minutes with 5 μM CM-H2DCFDA in phenol-red-free medium in the dark and then treated with TGF-β (R&D Systems) in the presence or absence of compounds according to the invention. Cells were then visualized by immunofluorescence microscopy after fixation and staining of the nuclei with DAPI or examined live using confocal microscopy. DCF fluorescence was visualized at an excitation wavelength of 488 nm and emission at 515 to 540 nm. […] For calculation, the absorbance at […] was normalized to absorbance at […] for each individual well. […] NOX activities were expressed as % of the activity in control cells. […]

Experiment [4] relates to NOX. The experiment can be described thus: Nitroblue tetrazolium (NBT) superoxide test in cells. It is filed as cell-based, human. The following applies: DPI 10 μM, % of the activity in control cells, 'usually'. Here is the method:
Intracellular and extracellular superoxide was measured by a colorimetric technique using a quantitative nitroblue tetrazolium (NBT) test. SOD-inhibitable conversion of NBT to formazan, a fine blue precipitate, in the presence of superoxide anion was measured using Fluostar Optima spectrometer (BMG labtech). Following incubation with appropriate stimuli, cells were trypsinized (1× Trypsin-EDTA), collected by centrifugation, and washed with PBS to remove medium. 5×10^5 cells were plated on 48-well plates and incubated in Hank's balanced salt solution containing 0.5 mg/mL NBT with or without 800 U/mL SOD in the presence or absence of compounds according to the invention. As a control, DPI was included at a final concentration of 10 μM. After 2.5 h, cells were fixed and washed with methanol to remove non reduced NBT. The reduced formazan was then dissolved in 230 μl of 2M potassium hydroxide and in 280 μl of dimethylsulfoxide. The absorption was measured at 630 nm. For calculation, the absorbance at 630 nm was normalized for each individual well. The mean of the four blank values was subtracted from each corrected value for each time point. NOX activities were expressed as % of the activity in control cells. Residual activity of DPI-treated cells was usually <10%.

`Cc1c2c(=O)n(-c3ccccc3Cl)[nH]c2cc(=O)n1Cc1ccccc1N1CCOCC1` [Compound 1, 2-(2-chlorophenyl)-4-methyl-5-(2-morpholin-4-ylbenzyl)-1H-pyrazolo[4,3-c]pyridine-3,6(2H,5H)-dione]: the IC50 (as a rule, the concentration at which inhibition is half-maximal) in experiment [1] is less than 5 µM.
On the same count and under the same terms, with `Cc1c2c(=O)n(-c3ccccc3Cl)[nH]c2cc(=O)n1CC(c1ccccc1)N1CCOCC1` (centres unmarked) [Compound 3, 2-(2-chlorophenyl)-4-methyl-5-(2-morpholin-4-yl-2-phenylethyl)-1H-pyrazolo[4,3-c]pyridine-3,6(2H,5H)-dione] the figure was less than 5 µM; with `Cc1c2c(=O)n(-c3ccccc3F)[nH]c2cc(=O)n1Cc1cccc(N2CCOCC2)n1` [Compound 20, 2-(2-fluorophenyl)-4-methyl-5-[(6-morpholin-4-ylpyridin-2-yl)methyl]-1H-pyrazolo[4,3-c]pyridine-3,6(2H,5H)-dione], less than 5 µM; with `CCOCCCn1c(C)c2c(=O)n(-c3nc(-c4ccccc4)cs3)[nH]c2cc1=O` [Compound 7, 5-(3-ethoxypropyl)-4-methyl-2-(4-phenyl-1,3-thiazol-2-yl)-1H-pyrazolo[4,3-c]pyridine-3,6(2H,5H)-dione], less than 5 µM.
For `COc1cccc(CCn2c(C)c3c(=O)n(-c4ccccc4Cl)[nH]c3cc2=O)c1` [Compound 4, 2-(2-chlorophenyl)-5-[2-(3-methoxyphenyl)ethyl]-4-methyl-1H-pyrazolo[4,3-c]pyridine-3,6(2H,5H)-dione], the IC50 in experiment [1] was less than 5 µM.
On to `c1ccc([I+]c2ccccc2)cc1` [DPI, Diphenyl-iodonium], for which the “Residual activity of DPI-treated cells” value in experiment [2], in experiment [3] and in experiment [4] was less than 10% in each case.
As to `Cc1c2c(=O)n(-c3cccc(Cl)c3)[nH]c2cc(=O)n1CCCC(=O)N1CCN(C)CC1` [Compound 28, 2-(3-chlorophenyl)-4-methyl-5-[4-(4-methylpiperazin-1-yl)-4-oxobutyl]-1H-pyrazolo[4,3-c]pyridine-3,6(2H,5H)-dione], in experiment [1], the IC50 is less than 5 µM.
On the same count and under the same terms, with `Cc1c2c(=O)n(-c3nc(-c4ccccc4)cs3)[nH]c2cc(=O)n1Cc1cccc(Oc2ccccc2)c1` [Compound 10, 4-methyl-5-(3-phenoxybenzyl)-2-(4-phenyl-1,3-thiazol-2-yl)-1H-pyrazolo[4,3-c]pyridine-3,6(2H,5H)-dione] the figure was less than 5 µM; with `Cc1c2c(=O)n(-c3ccccc3Cl)[nH]c2cc(=O)n1Cc1ccc(CN2CCN(C)CC2)cc1` [Compound 2, 2-(2-chlorophenyl)-4-methyl-5-{4-[(4-methylpiperazin-1-yl)methyl]benzyl}-1H-pyrazolo[4,3-c]pyridine-3,6(2H,5H)-dione], less than 5 µM; with `Cc1c2c(=O)n(-c3ccccc3Cl)[nH]c2cc(=O)n1C` [Compound 8, 2-(2-chlorophenyl)-4,5-dimethyl-1H-pyrazolo[4,3-c]pyridine-3,6(2H,5H)-dione], less than 5 µM.
`Cc1c2c(=O)n(-c3ccccc3Cl)[nH]c2cc(=O)n1NC(=O)COc1ccc(F)cc1` [Compound 13, N-[2-(2-chlorophenyl)-4-methyl-3,6-dioxo-1,2,3,6-tetra hydro-5H-pyrazolo[4,3-c]pyridin-5-yl]-2-(4-fluorophenoxy)acetamide] displayed an IC50 in experiment [1] of less than 5 µM.
Still for that read-out and setting: the figure for `Cc1c2c(=O)n(-c3ccccc3F)[nH]c2cc(=O)n1CC(=O)NCc1ccccn1` [Compound 30, 2-[2-(2-fluorophenyl)-4-methyl-3,6-dioxo-1,2,3,6-tetra hydro-5H-pyrazolo[4,3-c]pyridin-5-yl]-N-(pyridin-2-ylmethyl)acetamide] is less than 5 µM.
